Laboratory results taken from patent US20120172375A1, “COMPOUNDS AND METHODS OF PROMOTING OLIGODENDROCYTE PRECURSOR DIFFERENTIATION” (priority 2008, published 2012).

What was measured:
[1] = system: oligodendrocyte progenitors; experiment: Primary/secondary screening: oligodendrocyte progenitor morphology changes and Plp-EGFP fluorescence; format: cell-based, mouse; parameters: key to differentiation scale score (cell morphology): 1: bipolar, undifferentiated; 2: bipolar to tripolar, initiated differentiation; 3: multibranched, differentiated cells; 4: multibranched, differentiated cells showing membranous structures; details: 10 μM, 48 hr
Description: Oligodendrocyte progenitors were generated from embryonic neural progenitors growing in cell aggregates known as neurospheres (Nphs). Nph were prepared from embryos at 14.5 days of gestation obtained from timed pregnant females of either wild type mice or the proteolipid protein-enhanced-green fluorescence protein (Plp-EGFP) transgenic mouse. In brief, after separation of meninges and cerebellum, cerebrum tissue was mechanically triturated with a 1 ml Gilson pipette until total tissue disaggregation was achieved, filtered through a 70 μm cell strainer (Fisher Scientific, Pittsburg, Pa.) and plated in 25 cm^2 plastic culture flasks (2 brains/flask). Nph proliferation media (NPM) was DMEM/F12, B27 neuronal supplement (Gibco, Baltimore, Md.) and 10 ng/ml EGF (Sigma, St. Louis, Mo.). After 48-72 hr, floating Nphs were passaged at a 1:3 ratio in the same medium every 3-4 days. To generate oligodendrocyte progenitors, single cells suspensions were obtained by chemical disgregation with the mouse NeuroCult dissociation kit (StemCell Technologies, Alberta, Canada). The single cell suspension was filtered through a 70 μm cell strainer and plated on 96-well poly-D-Lysine (PDL)-coated plates at a cell density of 1.5×10^4 cells/cm^2. Cells were maintained in NPM supplemented with 10 ng/ml PDGF/bFGF instead of EGF. Bipolar, oligodendrocyte progenitor cells were observed 24 hours after plating. […]
The small molecule library consists of handcrafted drug-like organic molecules with molecular weight in a range of 250-550, dissolved in DMSO at concentration of 5 mg/ml or […]. Their structure and >95% purity have been validated by NMR. […] Oligodendrocyte progenitor differentiation was scored using as 4 scale values as follows: 1: bipolar, undifferentiated; 2: bipolar to tripolar, initiated differentiation; 3: multibranched, differentiated cells; 4: multibranched, differentiated cells showing membranous structures (FIG. 1).
Differentiation induced by selected compounds was further validated by fluorescence microscopy in cells generated from our Plp-EGFP transgenic mouse. Increased fluorescence in treated oligodendrocyte progenitor was indicative of cell maturation and was again scored following the same scale. […] These were analyzed for cell toxicity assays by MTT were yellow 3-(4,5-Dimethylthiazol-2-yl)-2,5-diphenyltetrazolium bromide, a tetrazole (MTT) is reduced to purple formazan in the mitochondria of living cells, showing a solution color change measurable by OD620-590 (Data not shown). Further oligodendrocyte progenitor maturation in response to selected compounds was assessed by induction of myelin protein expression as determined by immunocytochemistry and western blot. […]

Hydrophobicity = format: physicochemical

Row | SMILES | differentiation scale score (cell morphology) [1] | hydrophobicity (Hydrophobicity)
1 | CCS(=O)(=O)N1CCN(C(=O)COc2ccc(-c3ccccc3)cc2)CC1 [Compound A, 1-[(4-biphenylyloxy)acetyl]-4-(ethylsulfonyl)piperazine] | 4 | 
2 | CC(C)N1CCN(C(=O)COc2ccc(-c3ccccc3)cc2)CC1 [Compound A-7, 1-(Biphenyl-4-yloxy)acetyl-4-isopropylpiperazine] |  | high
